Measurements: paper PMC11378028 (RSC Advances, 2024)
≈ marks a conversion by molar mass, not a printed value.

Tests used:
E. coli DNA gyrase = E. coli DNA gyrase (Escherichia coli, UniProt P0AES6); test: DNA gyrase supercoiling plate assay; assay type: biochemical; conditions: for remaining activity at 0.1 µM / remaining activity at 1 µM: read-out: RA (residual activity) E. coli gyrase; for IC50: IC50 E. coli gyrase, supercoiling assay
[1] = system: K. pneumoniae ATCC 700603; test: MIC, broth microdilution; assay type: cell-based; conditions: Klebsiella pneumoniae, ATCC700603, read-out: MIC K. pneumoniae ATCC 700603
P. aeruginosa ATCC 27853 = test: MIC, broth microdilution; assay type: cell-based; conditions: Pseudomonas aeruginosa, ATCC27853, read-out: MIC P. aeruginosa ATCC 27853
K. aerogenes ATCC 13408 = test: MIC, broth microdilution; assay type: cell-based; conditions: Klebsiella aerogenes, ATCC13408, read-out: MIC K. aerogenes ATCC 13408
E. coli ATCC 25922 = test: MIC, broth microdilution; assay type: cell-based; conditions: Escherichia coli, ATCC25922, read-out: MIC E. coli ATCC 25922
A. baumannii ATCC 19606 = test: MIC, broth microdilution; assay type: cell-based; conditions: Acinetobacter baumannii, ATCC19606, read-out: MIC A. baumannii ATCC 19606
S. aureus ATCC 29213 = test: MIC, broth microdilution; assay type: cell-based, Staphylococcus aureus; conditions: Staphylococcus aureus, ATCC29213, read-out: MIC S. aureus ATCC 29213, broth microdilution
E. coli topoisomerase IV = E. coli topoisomerase IV (Escherichia coli, UniProt P20083); test: topoisomerase IV relaxation plate assay; assay type: biochemical
[2] = target: human DNA topoisomerase IIα (Homo sapiens, UniProt P11388); test: human DNA topoisomerase IIα inhibition; assay type: biochemical; conditions: read-out: RA (residual activity) Human topo IIα
[3] = read-out: RA (residual activity) E. coli topo IV

Chain of E. coli topoisomerase IV (P20083 whole entry): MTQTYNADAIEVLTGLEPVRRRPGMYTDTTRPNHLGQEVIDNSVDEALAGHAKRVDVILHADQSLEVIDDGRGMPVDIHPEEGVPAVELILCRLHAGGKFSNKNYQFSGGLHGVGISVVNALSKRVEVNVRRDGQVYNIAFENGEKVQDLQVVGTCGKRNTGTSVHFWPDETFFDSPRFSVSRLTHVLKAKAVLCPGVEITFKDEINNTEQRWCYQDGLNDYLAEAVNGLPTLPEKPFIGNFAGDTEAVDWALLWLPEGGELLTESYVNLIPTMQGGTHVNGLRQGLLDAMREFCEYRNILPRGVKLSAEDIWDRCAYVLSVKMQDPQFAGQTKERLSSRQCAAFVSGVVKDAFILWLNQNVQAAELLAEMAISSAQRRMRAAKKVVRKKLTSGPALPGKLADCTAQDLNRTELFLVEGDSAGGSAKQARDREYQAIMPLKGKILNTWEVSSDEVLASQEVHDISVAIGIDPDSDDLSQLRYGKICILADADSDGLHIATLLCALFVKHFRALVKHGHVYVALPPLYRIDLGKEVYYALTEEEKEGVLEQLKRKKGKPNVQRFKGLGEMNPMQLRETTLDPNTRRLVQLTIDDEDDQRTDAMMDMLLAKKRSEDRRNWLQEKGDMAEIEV
Chain of E. coli topoisomerase IV (P0AFI2 whole entry partner): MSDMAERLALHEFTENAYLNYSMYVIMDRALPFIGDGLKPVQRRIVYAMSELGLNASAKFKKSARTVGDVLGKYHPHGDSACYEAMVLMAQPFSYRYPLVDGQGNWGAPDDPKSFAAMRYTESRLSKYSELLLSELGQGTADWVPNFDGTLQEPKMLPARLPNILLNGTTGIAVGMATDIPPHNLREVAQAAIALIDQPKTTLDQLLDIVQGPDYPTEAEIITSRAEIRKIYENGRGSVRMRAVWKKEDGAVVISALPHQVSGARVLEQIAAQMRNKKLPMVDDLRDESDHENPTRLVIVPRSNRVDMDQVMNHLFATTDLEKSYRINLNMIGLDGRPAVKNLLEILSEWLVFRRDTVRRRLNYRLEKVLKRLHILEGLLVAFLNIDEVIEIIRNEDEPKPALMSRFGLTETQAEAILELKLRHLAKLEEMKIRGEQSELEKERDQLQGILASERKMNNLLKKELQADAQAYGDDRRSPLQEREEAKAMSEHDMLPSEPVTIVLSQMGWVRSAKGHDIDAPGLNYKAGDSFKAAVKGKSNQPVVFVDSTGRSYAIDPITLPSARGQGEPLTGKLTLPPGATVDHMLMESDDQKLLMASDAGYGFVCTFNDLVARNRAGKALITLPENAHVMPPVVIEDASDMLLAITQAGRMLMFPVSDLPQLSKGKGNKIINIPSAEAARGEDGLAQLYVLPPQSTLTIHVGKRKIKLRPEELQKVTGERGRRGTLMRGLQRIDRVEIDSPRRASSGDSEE
Chain of human DNA topoisomerase IIα (P11388 whole entry): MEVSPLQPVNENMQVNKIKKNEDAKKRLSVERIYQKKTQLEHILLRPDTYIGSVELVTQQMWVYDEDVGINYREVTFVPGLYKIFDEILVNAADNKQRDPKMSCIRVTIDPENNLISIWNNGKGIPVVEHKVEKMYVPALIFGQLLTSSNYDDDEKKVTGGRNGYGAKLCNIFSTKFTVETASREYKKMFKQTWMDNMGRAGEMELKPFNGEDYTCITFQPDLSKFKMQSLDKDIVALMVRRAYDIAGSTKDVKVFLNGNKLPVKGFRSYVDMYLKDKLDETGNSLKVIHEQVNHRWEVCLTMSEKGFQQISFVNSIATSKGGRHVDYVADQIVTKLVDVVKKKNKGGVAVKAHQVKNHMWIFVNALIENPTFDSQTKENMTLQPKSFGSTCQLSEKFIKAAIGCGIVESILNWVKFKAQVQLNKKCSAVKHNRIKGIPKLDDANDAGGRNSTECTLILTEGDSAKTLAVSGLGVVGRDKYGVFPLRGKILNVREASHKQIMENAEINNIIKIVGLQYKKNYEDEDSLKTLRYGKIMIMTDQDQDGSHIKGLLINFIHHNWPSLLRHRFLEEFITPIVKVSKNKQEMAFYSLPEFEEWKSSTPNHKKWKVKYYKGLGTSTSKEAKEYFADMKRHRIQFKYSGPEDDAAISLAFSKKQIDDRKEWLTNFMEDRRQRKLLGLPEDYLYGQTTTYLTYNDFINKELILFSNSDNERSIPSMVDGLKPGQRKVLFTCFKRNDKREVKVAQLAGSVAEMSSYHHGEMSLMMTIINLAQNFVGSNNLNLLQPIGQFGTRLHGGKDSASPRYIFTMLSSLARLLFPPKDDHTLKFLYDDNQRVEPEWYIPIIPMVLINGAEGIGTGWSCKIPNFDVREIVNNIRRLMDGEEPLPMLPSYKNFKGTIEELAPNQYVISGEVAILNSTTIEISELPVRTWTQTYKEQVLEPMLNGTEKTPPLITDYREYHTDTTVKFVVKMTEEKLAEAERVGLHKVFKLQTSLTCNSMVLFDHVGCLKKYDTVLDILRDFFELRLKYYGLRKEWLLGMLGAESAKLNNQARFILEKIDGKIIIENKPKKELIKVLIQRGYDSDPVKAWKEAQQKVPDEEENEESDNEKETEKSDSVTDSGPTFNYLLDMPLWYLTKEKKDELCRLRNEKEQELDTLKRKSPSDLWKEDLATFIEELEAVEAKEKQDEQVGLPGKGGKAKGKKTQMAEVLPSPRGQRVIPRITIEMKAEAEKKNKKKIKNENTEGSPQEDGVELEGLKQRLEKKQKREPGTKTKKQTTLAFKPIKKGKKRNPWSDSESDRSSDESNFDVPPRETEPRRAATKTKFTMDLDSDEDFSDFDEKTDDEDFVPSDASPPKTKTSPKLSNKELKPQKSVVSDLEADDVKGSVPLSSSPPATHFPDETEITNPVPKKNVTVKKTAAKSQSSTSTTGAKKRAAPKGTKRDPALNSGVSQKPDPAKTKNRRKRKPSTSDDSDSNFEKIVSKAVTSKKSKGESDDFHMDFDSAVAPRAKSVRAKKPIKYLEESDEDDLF

## Cc1[nH]c(C(=O)Nc2ccc(-c3n[nH]c(=O)o3)cc2N2CCC[C@H](NC(=O)OC(C)(C)C)C2)c(Cl)c1Cl [Compound 22c, tert-Butyl (S)-(1-(2-(3,4-dichloro-5-methyl-1H-pyrrole-2-carboxamido)-5-(5-oxo-4,5-dihydro-1,3,4-oxadiazol-2-yl)phenyl)piperidin-3-yl)carbamate]
E. coli DNA gyrase
  remaining activity at 0.1 µM: 90%
[1]
  MIC: > 32 µg/mL
P. aeruginosa ATCC 27853
  MIC: > 32 µg/mL
K. aerogenes ATCC 13408
  MIC: > 32 µg/mL
E. coli ATCC 25922
  MIC: > 32 µg/mL
A. baumannii ATCC 19606
  MIC: > 32 µg/mL
S. aureus ATCC 29213
  MIC: 32 µg/mL (≈ 58 µM)

## Cc1[nH]c(C(=O)Nc2ccc(C(=O)NCC(=O)O)cc2N2CC[C@H](NC(=O)OC(C)(C)C)C2)c(Cl)c1Cl [Compound 8b, (S)-(3-(3-((tert-Butoxycarbonyl)amino)pyrrolidin-1-yl)-4-(3,4-dichloro-5-methyl-1H-pyrrole-2-carboxamido)benzoyl)glycine]
E. coli DNA gyrase
  IC50: 196 nM

## Cc1[nH]c(C(=O)Nc2ccc(C(=O)NCC(=O)O)cc2N2CCNCC2)c(Cl)c1Cl [Compound 10a, 4-(5-((Carboxymethyl)carbamoyl)-2-(3,4-dichloro-5-methyl-1H-pyrrole-2-carboxamido)phenyl)piperazin-1-ium chloride]
E. coli topoisomerase IV; [3]
  remaining activity at 1 µM: 93%
[2]
  remaining activity at 10 µM: 78%

## Cc1[nH]c(C(=O)Nc2ccc(C(=O)O)cc2N2CCC[C@H](NC(=O)OC(C)(C)C)C2)c(Cl)c1Cl [Compound 18c, (S)-3-(3-((tert-Butoxycarbonyl)amino)piperidin-1-yl)-4-(3,4-dichloro-5-methyl-1H-pyrrole-2-carboxamido)benzoic acid]
E. coli DNA gyrase
  remaining activity at 1 µM: 67%
[1]
  MIC: > 32 µg/mL
P. aeruginosa ATCC 27853
  MIC: > 32 µg/mL
K. aerogenes ATCC 13408
  MIC: > 32 µg/mL
E. coli ATCC 25922
  MIC: > 32 µg/mL
A. baumannii ATCC 19606
  MIC: > 32 µg/mL

## CC(C)(C)OC(=O)N1CCN(c2cc(C(=O)NCC(=O)O)ccc2NC(=O)c2cc(Br)c(Br)[nH]2)CC1 [Compound 9a, (3-(4-(tert-Butoxycarbonyl)piperazin-1-yl)-4-(4,5-dibromo-1H-pyrrole-2-carboxamido)benzoyl)glycine]
E. coli DNA gyrase
  IC50: 362 nM

## 4,5-Dibromo-N-(2-morpholino-4-(5-oxo-4,5-dihydro-1,3,4-oxadiazol-2-yl)phenyl)-1H-pyrrole-2-carboxamide [Compound 27a]
E. coli DNA gyrase; at 10 μM compound
  RA (residual activity) E. coli gyrase: 98% (10 μM)
E. coli topoisomerase IV; at 1 μM compound
  RA (residual activity) E. coli topo IV: 103% (1 μM)

## Cc1[nH]c(C(=O)Nc2ccc(C(=O)NCC(=O)O)cc2N2CC[C@@H](N)C2)c(Cl)c1Cl [Compound 10c, (R)-1-(5-((Carboxymethyl)carbamoyl)-2-(3,4-dichloro-5-methyl-1H-pyrrole-2-carboxamido)phenyl)pyrrolidin-3-aminium chloride]
E. coli DNA gyrase
  IC50: ~20 nM
[2]
  remaining activity at 40 µM: 112%

## O=C(O)CNC(=O)c1ccc(NC(=O)c2cc(Br)c(Br)[nH]2)c(N2CCNCC2)c1 [Compound 11a, 4-(5-((Carboxymethyl)carbamoyl)-2-(4,5-dibromo-1H-pyrrole-2-carboxamido)phenyl)piperazin-1-ium chloride]
[2]
  remaining activity at 40 µM: 100%

## CC(C)(C)OC(=O)N[C@H]1CCN(c2cc(C(=O)NCC(=O)O)ccc2NC(=O)c2cc(Br)c(Br)[nH]2)C1 [Compound 9b, (S)-(3-(3-((tert-Butoxycarbonyl)amino)pyrrolidin-1-yl)-4-(4,5-dibromo-1H-pyrrole-2-carboxamido)benzoyl)glycine]
E. coli DNA gyrase
  IC50: 4110 nM

## Cc1[nH]c(C(=O)Nc2ccc(C(=O)NCc3n[nH]c(=O)o3)cc2N2CCN(C(=O)OC(C)(C)C)CC2)c(Cl)c1Cl [Compound 13, tert-Butyl 4-(2-(3,4-dichloro-5-methyl-1H-pyrrole-2-carboxamido)-5-(((5-oxo-4,5-dihydro-1,3,4-oxadiazol-2-yl)methyl)carbamoyl)phenyl)piperazine-1-carboxylate]
E. coli DNA gyrase
  IC50: 483 nM
S. aureus ATCC 29213
  MIC: 1 µg/mL (≈ 1.68 µM)

## Cc1[nH]c(C(=O)Nc2ccc(-c3n[nH]c(=O)o3)cc2N2CCN(C(=O)OC(C)(C)C)CC2)c(Cl)c1Cl [Compound 22a, tert-Butyl 4-(2-(3,4-dichloro-5-methyl-1H-pyrrole-2-carboxamido)-5-(5-oxo-4,5-dihydro-1,3,4-oxadiazol-2-yl)phenyl)piperazine-1-carboxylate]
E. coli DNA gyrase
  IC50: 59 nM
E. coli topoisomerase IV; [3]
  remaining activity at 1 µM: 104%
[2]
  remaining activity at 100 µM: 100%

## Cc1[nH]c(C(=O)Nc2ccc(C(=O)O)cc2N2CCCC(CNC(=O)OC(C)(C)C)C2)c(Cl)c1Cl (stereo not drawn) [Compound 18i, 3-(3-(((tert-Butoxycarbonyl)amino)methyl)piperidin-1-yl)-4-(3,4-dichloro-5-methyl-1H-pyrrole-2-carboxamido)benzoic acid]
E. coli DNA gyrase
  remaining activity at 0.1 µM: 89%
[1]
  MIC: > 32 µg/mL
P. aeruginosa ATCC 27853
  MIC: > 32 µg/mL
K. aerogenes ATCC 13408
  MIC: > 32 µg/mL
E. coli ATCC 25922
  MIC: > 32 µg/mL
A. baumannii ATCC 19606
  MIC: > 32 µg/mL
[2]
  remaining activity at 100 µM: 128%

## Cc1[nH]c(C(=O)Nc2ccc(C(=O)NCc3n[nH]c(=O)o3)cc2N2CCNCC2)c(Cl)c1Cl [Compound 14, 4-(2-(3,4-Dichloro-5-methyl-1H-pyrrole-2-carboxamido)-5-(((5-oxo-4,5-dihydro-1,3,4-oxadiazol-2-yl)methyl)carbamoyl)phenyl)piperazin-1-ium chloride]
E. coli DNA gyrase
  IC50: ~20 nM
[2]
  remaining activity at 10 µM: 111%

## Cc1[nH]c(C(=O)Nc2ccc(-c3n[nH]c(=O)o3)cc2N2CC(C)OC(C)C2)c(Cl)c1Cl (stereo not drawn) [Compound 22g, 3,4-Dichloro-N-(2-(2,6-dimethylmorpholino)-4-(5-oxo-4,5-dihydro-1,3,4-oxadiazol-2-yl)phenyl)-5-methyl-1H-pyrrole-2-carboxamide]
[2]
  remaining activity at 100 µM: 97%

## Cc1[nH]c(C(=O)Nc2ccc(C(=O)NCC(=O)O)cc2N2CC[C@@H](NC(=O)OC(C)(C)C)C2)c(Cl)c1Cl [Compound 8c, (R)-(3-(3-((tert-Butoxycarbonyl)amino)pyrrolidin-1-yl)-4-(3,4-dichloro-5-methyl-1H-pyrrole-2-carboxamido)benzoyl)glycine]
E. coli DNA gyrase
  IC50: 162 nM

## N[C@H]1CCN(c2cc(C(=O)NCC(=O)O)ccc2NC(=O)c2cc(Br)c(Br)[nH]2)C1 [Compound 11b, (S)-1-(5-((Carboxymethyl)carbamoyl)-2-(4,5-dibromo-1H-pyrrole-2-carboxamido)phenyl)pyrrolidin-3-aminium chloride]
E. coli DNA gyrase
  IC50: 235 nM

## Cc1[nH]c(C(=O)N(Cc2ccccc2)c2ccc(-c3n[nH]c(=O)o3)cc2)c(Cl)c1Cl [Compound 33, N-Benzyl-3,4-dichloro-5-methyl-N-(4-(5-oxo-4,5-dihydro-1,3,4-oxadiazol-2-yl)phenyl)-1H-pyrrole-2-carboxamide]
E. coli DNA gyrase
  remaining activity at 1 µM: 81%
[2]
  remaining activity at 100 µM: 92%

## CC(C)(C)OC(=O)N[C@@H]1CCN(c2cc(C(=O)NCC(=O)O)ccc2NC(=O)c2cc(Br)c(Br)[nH]2)C1 [Compound 9c, (R)-(3-(3-((tert-Butoxycarbonyl)amino)pyrrolidin-1-yl)-4-(4,5-dibromo-1H-pyrrole-2-carboxamido)benzoyl)glycine]
E. coli DNA gyrase
  IC50: 5390 nM

## N[C@@H]1CCN(c2cc(C(=O)NCC(=O)O)ccc2NC(=O)c2cc(Br)c(Br)[nH]2)C1 [Compound 11c, (R)-1-(5-((Carboxymethyl)carbamoyl)-2-(4,5-dibromo-1H-pyrrole-2-carboxamido)phenyl)pyrrolidin-3-aminium chloride]
E. coli DNA gyrase
  IC50: 996 nM
E. coli topoisomerase IV; [3]
  remaining activity at 10 µM: 75%
